We go through six compounds from patent US10045998B2 (BASF SE, priority 2013, dated 2018).

The conditions of series [1]: biopharmaceutics classification system; report EMA/CHMP/542871/2011; cited from earlier work.
Series [2] in a line: Aqueous solubility in purified water, 24 h equilibration, HPLC. The series is classed as physicochemical. The conditions noted are these: 25° C.; for Aqueous solubility S: 24 h equilibration, effective solubility of abiraterone acetate (corrected for formula mass), LOD ca. one microgram per ml. The protocol: (§1) The resulting suspension is equilibrated in a temperature-controlled Eppendorf Thermomixer Comfort shaker for 2 hours or 24 hours at 25° C. at a shaking rate of 700 rpm. After 2 hours, or 24 hours, the solid phases are recovered by filter centrifugation (0.22 μm PVDF membrane). Concentrations in the filtrate after 2 hours or 24 hours (i.e. saturated solution) are determined by HPLC using under conditions given in the below Table; limit of detection (LOD) is ca. one microgram per ml.
(§2) For the results in Table a), the medium is purified water.

Series [3] can be described thus: Solubility of abiraterone acetate in phosphate buffer and various amounts of organic acids. The following applies: for solubility: thermodynamic from solid, read-out: Solubility S. The series is classed as physicochemical. The procedure: as §1, §2
The conditions of series [4]: recent publications; quick absorption of a small fraction of the dose; cited from earlier work.
The nature of series [5]: Dynamic (water) vapour sorption (DVS), hygroscopicity. Type of series: physicochemical. The following applies: 25° C. The protocol:
DVS: Dynamic (water) vapour sorption (DVS) is performed with a SPS11-100n (“Sorptions Prüfsystem” moisture sorption instrument from Projekt Meβtechnik, Ulm, Germany, using about 20 mg of sample material in an aluminum pan with a change rate of 5% of total relative humidity per hour. Program starting value of 50% with equilibration for 2 hours, continuously lowering to 0%, equilibration (i.e. humidity kept constant), scanning from 0% to 95%, equilibration, scanning from 95% to 0%, equilibration, scanning from 0% to 95%, equilibration, and scanning to 50% relative humidity. Sample temp. 25° C.

For series [6] the following is noted: pKa of the organic acid / coformer; cited from earlier work.

A word on the solubility: it is the concentration that dissolves in the medium under given conditions.

Like-named read-outs stand apart in the source and are kept apart here.

With `CC(=O)O[C@H]1CC[C@@]2(C)C(=CC[C@@H]3[C@@H]2CC[C@]2(C)C(c4cccnc4)=CC[C@@H]32)C1` [Abiraterone acetate, (3β)-17-(3-pyridinyl)androsta-5,16-dien-3-yl acetate], the BCS class entry in series [1] was “class IV”. Also, the “Aqueous solubility S” value in series [2] is “<LOD”. Moreover, the solubility in series [3] (pH 3.1, aqueous buffer, phosphate buffer, no acid added, 25° C.) worked out at 2 µg/mL; in series [3] (phosphate buffer with ascorbic acid, pH 2.4, aqueous buffer, phosphate buffer, ascorbic acid 0.5 mol/L, 25° C.), 33 µg/mL; in series [3] (phosphate buffer with ascorbic acid, pH 2.8, aqueous buffer, phosphate buffer, ascorbic acid 0.1 mol/L, 25° C.), 5 µg/mL; in series [3] (phosphate buffer with citric acid, 25 °C, pH 2.3, aqueous buffer) it was 14 µg/mL. Besides, the pH was determined as 2.8 in series [3] (phosphate buffer, ascorbic acid 0.1 mol/L); 2.4 in series [3] (phosphate buffer, ascorbic acid 0.5 mol/L); 2.3 in series [3] (phosphate buffer, citric acid 0.5 mol/L); 3.1 in series [3] (phosphate buffer, no acid added). In addition, the “median peak concentration, time after dosing” value in series [4] is recorded as 2 h.

With `CC(=O)O[C@H]1CC[C@@]2(C)C(=CC[C@@H]3[C@@H]2CC[C@]2(C)C(c4cccnc4)=CC[C@@H]32)C1.O=C(O)CC(O)C(=O)O` [Example 3], the “Aqueous solubility S” value in series [2] is recorded as 13.8 microgram/ml. In addition, the “maximum water up-take at 95% r.h.” value in series [5] is “less than 4%”.

Consider `O=C(O)/C=C\C(=O)O` [Example 4, Maleic acid], for which the “Aqueous solubility S” value in series [2] came out at 14.4 microgram/ml. Moreover, the “pH of the saturated solution” value in series [2] (after 24 h equilibration) amounted to 2.3.

`CC(=O)OC1CCC2(C)C(=CCC3C2CCC2(C)C(c4cccnc4)=CCC32)C1.O=C1NS(=O)(=O)c2ccccc21` (centres unmarked) [Example 6]: in series [5], the “water up-take at 80% r.h.” value fell in the range of 0.1 to 0.2% and the “maximum water up-take at 95% r.h.” value is listed as “less than 0.4%”.

Turning to `CC(=O)O[C@H]1CC[C@@]2(C)C(=CC[C@@H]3[C@@H]2CC[C@]2(C)C(c4cccnc4)=CC[C@@H]32)C1.COc1cc(C(=O)O)ccc1O` [Example 8], in series [5], the “water up-take at 80% r.h.” value is listed as “about 0.2%” and the “maximum water up-take at 95% r.h.” value is “less than 0.4%”.

In the case of `O=C(O)[C@H](O)[C@@H](O)C(=O)O` [L-Tartaric acid, L-tartaric acid], the pKa entry in series [6] is listed as “L-Tartaric acid (2.95)”.
